Reference: patent publication US8956999B2, “Herbicides” (Syngenta Limited, priority 2007, dated 2015)

Tests used:
Type in all cases: in vivo
[1] = system: Echinochloa crus-galli (ECHCG); assay: Example B pre-emergence herbicidal test, glasshouse; settings: Echinochloa crus-galli, 312 h, rate 250 g/ha, evaluated after 13 days, 100=total damage to plant, 0=no damage to plant, read-out: Pre-Emergence Activity ECHGG
Experimental: (§1) Seeds of a variety of test species were sown in standard soil in pots. After cultivation for one day (pre-emergence) or after 8 days cultivation (post-emergence) under controlled conditions in a glasshouse (at 24/16° C., day/night; 14 hours light; 65% humidity), the plants were sprayed with an aqueous spray solution derived from the formulation of the technical active ingredient in acetone/water (50:50) solution containing 0.5% Tween 20 (polyoxyethelyene sorbitan monolaurate, CAS RN 9005-64-5). The test plants were then grown in a glasshouse under controlled conditions in a glasshouse (at 24/16° C., day/night; 14 hours light; 65% humidity) and watered twice daily. After 13 days for pre and post-emergence, the test was evaluated (100=total damage to plant; 0=no damage to plant). Test Plants: Alopecurus myosuroides (ALOMY), Avena fatua (AVEFA), Setaria faberi (SETFA), Echinochloa crus-galli (ECHCG), Solanum nigrum (SOLNI) and Amaranthus retoflexus (AMARE)

[2] = system: Amaranthus retoflexus (AMARE); assay: as above; settings: Amaranthus retroflexus, 312 h, rate 250 g/ha, evaluated after 13 days, 100=total damage to plant, 0=no damage to plant
Experimental: as §1

[3] = system: Alopecurus myosuroides (ALOMY); assay: as above; settings: 312 h, rate 250 g/ha, evaluated after 13 days, 100=total damage to plant, 0=no damage to plant
Experimental: as §1

Setaria faberi (SETFA) [4] = assay: as above; settings: Setaria faberi, 312 h, rate 250 g/ha, evaluated after 13 days, 100=total damage to plant, 0=no damage to plant, read-out: Pre-Emergence Activity SEFTA
Experimental: as §1

Avena fatua (AVEFA) [5] = assay: as above; settings: 312 h, rate 250 g/ha, evaluated after 13 days, 100=total damage to plant, 0=no damage to plant
Experimental: as §1

[6] = system: Echinochloa crus-galli (ECHCG); assay: Example B post-emergence herbicidal test, glasshouse; settings: 312 h, rate 250 g/ha, evaluated after 13 days, read-out: Post-Emergence Activity ECHGG (100=total damage to plant; 0=no damage to plant)
Experimental: as §1

[7] = system: Amaranthus retoflexus (AMARE); assay: as above; settings: Amaranthus retroflexus, 312 h, rate 250 g/ha, evaluated after 13 days, read-out: Post-Emergence Activity AMARE (100=total damage to plant; 0=no damage to plant)
Experimental: as §1

[8] = system: Alopecurus myosuroides (ALOMY); assay: as above; settings: 312 h, rate 250 g/ha, evaluated after 13 days, read-out: Post-Emergence Activity ALOMY (100=total damage to plant; 0=no damage to plant)
Experimental: as §1

Setaria faberi (SETFA) [9] = assay: as above; settings: 312 h, rate 250 g/ha, evaluated after 13 days, read-out: Post-Emergence Activity SEFTA (100=total damage to plant; 0=no damage to plant)
Experimental: as §1

Avena fatua (AVEFA) [10] = assay: as above; settings: 312 h, rate 250 g/ha, evaluated after 13 days, read-out: Post-Emergence Activity AVEFA (100=total damage to plant; 0=no damage to plant)
Experimental: as §1

SMILES: Cc1cc(Br)ccc1-c1nc(C2=C(OC(=O)C3CC3)C(C)(C)OC(C)(C)C2=O)c(C)s1 [Compound P7]
- pest or weed control at 250 g/ha [1]: 80%
- pest or weed control at 250 g/ha [2]: 0%
- pest or weed control at 250 g/ha [3]: 70%
- pest or weed control at 250 g/ha (Setaria faberi (SETFA) [4]): 100%
- pest or weed control at 250 g/ha (Avena fatua (AVEFA) [5]): 0%
- pest or weed control at 250 g/ha [6]: 100%
- pest or weed control at 250 g/ha [7]: 0%
- pest or weed control at 250 g/ha [8]: 80%
- pest or weed control at 250 g/ha (Setaria faberi (SETFA) [9]): 100%
- pest or weed control at 250 g/ha (Avena fatua (AVEFA) [10]): 80%

SMILES: Cc1sc(COc2ccc(Cl)cc2)nc1C1C(=O)C(C)(C)OC(C)(C)C1=O [Compound T59]
- pest or weed control at 250 g/ha [1]: 0%
- pest or weed control at 250 g/ha [2]: 0%
- pest or weed control at 250 g/ha [3]: 0%
- pest or weed control at 250 g/ha (Setaria faberi (SETFA) [4]): 0%
- pest or weed control at 250 g/ha (Avena fatua (AVEFA) [5]): 0%
- pest or weed control at 250 g/ha [6]: 70%
- pest or weed control at 250 g/ha [7]: 0%
- pest or weed control at 250 g/ha [8]: 30%
- pest or weed control at 250 g/ha (Setaria faberi (SETFA) [9]): 30%
- pest or weed control at 250 g/ha (Avena fatua (AVEFA) [10]): 0%

SMILES: Cc1sc(-c2ccc(Cl)cc2F)nc1C1C(=O)C(C)(C)C(=O)C(C)(C)C1=O [Compound T9]
- pest or weed control at 250 g/ha [1]: 20%
- pest or weed control at 250 g/ha [2]: 0%
- pest or weed control at 250 g/ha [3]: 0%
- pest or weed control at 250 g/ha (Setaria faberi (SETFA) [4]): 40%
- pest or weed control at 250 g/ha (Avena fatua (AVEFA) [5]): 0%
- pest or weed control at 250 g/ha [6]: 90%
- pest or weed control at 250 g/ha [7]: 0%
- pest or weed control at 250 g/ha [8]: 90%
- pest or weed control at 250 g/ha (Setaria faberi (SETFA) [9]): 80%
- pest or weed control at 250 g/ha (Avena fatua (AVEFA) [10]): 40%

SMILES: CCc1sc(-c2c(C)cc(Cl)cc2F)nc1C1C(=O)C(C)(C)OC(C)(C)C1=O [Compound T64]
- pest or weed control at 250 g/ha [1]: 70%
- pest or weed control at 250 g/ha [2]: 0%
- pest or weed control at 250 g/ha [3]: 0%
- pest or weed control at 250 g/ha (Setaria faberi (SETFA) [4]): 100%
- pest or weed control at 250 g/ha (Avena fatua (AVEFA) [5]): 0%
- pest or weed control at 250 g/ha [6]: 100%
- pest or weed control at 250 g/ha [7]: 0%
- pest or weed control at 250 g/ha [8]: 20%
- pest or weed control at 250 g/ha (Setaria faberi (SETFA) [9]): 100%
- pest or weed control at 250 g/ha (Avena fatua (AVEFA) [10]): 60%

SMILES: Cc1sc(-c2ccc(F)cc2)cc1C1C(=O)C(C)(C)C(=O)C(C)(C)C1=O [Compound T25]
- pest or weed control at 250 g/ha [6]: 20%
- pest or weed control at 250 g/ha [7]: 0%
- pest or weed control at 250 g/ha [8]: 0%
- pest or weed control at 250 g/ha (Setaria faberi (SETFA) [9]): 20%
- pest or weed control at 250 g/ha (Avena fatua (AVEFA) [10]): 0%

SMILES: CSc1ccc(-c2nc(C3C(=O)C(C)(C)OC(C)(C)C3=O)c(C)s2)cc1 [Compound T67]
- pest or weed control at 250 g/ha [6]: 90%
- pest or weed control at 250 g/ha [7]: 0%
- pest or weed control at 250 g/ha [8]: 0%
- pest or weed control at 250 g/ha (Setaria faberi (SETFA) [9]): 70%
- pest or weed control at 250 g/ha (Avena fatua (AVEFA) [10]): 0%

SMILES: Cc1cc(Cl)ccc1-c1nc(C2C(=O)C(C)(C)C(=O)C(C)(C)C2=O)c(C)s1 [Compound T44]
- pest or weed control at 250 g/ha [1]: 30%
- pest or weed control at 250 g/ha [2]: 0%
- pest or weed control at 250 g/ha [3]: 0%
- pest or weed control at 250 g/ha (Setaria faberi (SETFA) [4]): 0%
- pest or weed control at 250 g/ha (Avena fatua (AVEFA) [5]): 0%

SMILES: Cc1sc(-c2ccc(Cl)cc2Cl)nc1C1C(=O)C(C)(C)C(=O)C(C)(C)C1=O [Compound T45]
- pest or weed control at 250 g/ha [6]: 70%
- pest or weed control at 250 g/ha [7]: 0%
- pest or weed control at 250 g/ha [8]: 30%
- pest or weed control at 250 g/ha (Setaria faberi (SETFA) [9]): 70%
- pest or weed control at 250 g/ha (Avena fatua (AVEFA) [10]): 0%

SMILES: Cc1sc(-c2ccc(Cl)cc2)cc1C1C(=O)C(C)(C)C(=O)C(C)(C)C1=O [Compound T5]
- pest or weed control at 250 g/ha [6]: 70%
- pest or weed control at 250 g/ha [7]: 0%
- pest or weed control at 250 g/ha [8]: 40%
- pest or weed control at 250 g/ha (Setaria faberi (SETFA) [9]): 50%
- pest or weed control at 250 g/ha (Avena fatua (AVEFA) [10]): 0%

SMILES: Cc1sc(-c2ccc(C(F)(F)F)cc2)cc1C1C(=O)C(C)(C)C(=O)C(C)(C)C1=O [Compound T27]
- pest or weed control at 250 g/ha [6]: 30%
- pest or weed control at 250 g/ha [7]: 30%
- pest or weed control at 250 g/ha [8]: 20%
- pest or weed control at 250 g/ha (Setaria faberi (SETFA) [9]): 50%
- pest or weed control at 250 g/ha (Avena fatua (AVEFA) [10]): 0%
